Legend:
Human keratinocytes = test: PGE2 release post-UVB irradiation, keratinocytes (ELISA); assay type: cell-based; settings: for Change in PGE2 release post-UVB irradiation, keratinocytes: UVB 30 mJ/cm2, 24 hours
Experimental: (§1) Human keratinocytes and fibroblasts were cultured in an appropriate medium in the presence of various concentrations of chrysin for 24 hours. The cells were then transferred to a product-free medium and exposed to a pro-inflammatory dose of UVB radiation at a dosage of 35 mJ/cm2 for fibroblasts and 30 mJ/cm2 for keratinocytes. Following irradiation, the cells were then post-incubated either in medium alone or in medium containing various concentrations of chrysin vs. a positive control (acetylsalicylic acid) for 24 hours. PGE2 release into the culture medium after 24 hours was determined using an ELISA method.

UGT1A1 mRNA = test: Induction of UGT1A1 mRNA by chrysin, RT-PCR in hepG2 cells; assay type: cell-based, Human; settings: 3 days
Experimental: Human hepG2 cells were cultured in an appropriate medium (Williams medium) in the presence or absence of the inductor, chrysin, for 3 days At the end of that period, cell lysis was induced, mRNA extracted and RT-PCR conducted
Quantification of UGT1A1 mRNA: The study was conducted after 3 days of incubation in the presence of chrysin. The values, shown in Table 1, obtained were normalized on the GADPH internal standard and then expressed as percentages relative to the reference.

fibroblasts = test: PGE2 release post-UVB irradiation, fibroblasts (ELISA); assay type: cell-based, Human; settings: for Change in PGE2 release post-UVB irradiation, fibroblasts: UVB 35 mJ/cm2, 24 hours
Experimental: as §1

[1] = positive control, concentration not given

In the case of `O=c1cc(-c2ccccc2)oc2cc(O)cc(O)c12` [Chrysin, 5,7-dihydroxyflavone], the “Change in PGE2 release post-UVB irradiation, keratinocytes” value (shortened to “Change … keratinocytes”) (Human keratinocytes; 2 μM) is reported as −75%, the “Change … keratinocytes” value (Human keratinocytes; 3.9 μM) is reported as −84% and the “Change … keratinocytes” value (Human keratinocytes; 7.8 μM) is reported as −85%. For the same molecule, the “Change … keratinocytes” value (Human keratinocytes; 11.8 μM) was −86%, the “inhibition of keratinocytic PGE2” value (Human keratinocytes; maximum over the chrysin concentrations, without a dose effect) was “up to 85%” and the “UGT1A1 Induction” value (UGT1A1 mRNA; chrysin 7.8 μM) was “×2.5”. The “UGT1A1 mRNA, normalized on GADPH, percentage relative to the reference” value (UGT1A1 mRNA; chrysin 7.8 μM) was 247%, the “UGT1A1 Induction” value (UGT1A1 mRNA; chrysin 11.8 μM) was “×6” and the “UGT1A1 mRNA, normalized on GADPH, percentage relative to the reference” value (UGT1A1 mRNA; chrysin 11.8 μM) was 600%. The “increase in UGT1A1 mRNA (in words)” value (UGT1A1 mRNA; dose effect) was “very marked increase”, the “Change in PGE2 release post-UVB irradiation, fibroblasts” value (from here on “Change … fibroblasts”) (fibroblasts; 2 μM) was −76% and the “Change … fibroblasts” value (fibroblasts; 3.9 μM) was −85%. The “Change … fibroblasts” value (fibroblasts; 7.8 μM) was −89% and the “Change … fibroblasts” value (fibroblasts; 11.8 μM) was −92%.

`CC(=O)Oc1ccccc1C(=O)O` [acetylsalicylic acid, reference compound] was tested, and the “Change … keratinocytes” value (Human keratinocytes; [1]) was −92%, the “inhibition of PGE2, keratinocytes” value (Human keratinocytes; [1]) was “greater than 90%” and the “Change … fibroblasts” value (fibroblasts; [1]) was −95%. For the same molecule, the “inhibition of PGE2, fibroblasts” value (fibroblasts; [1]) was “greater than 90%”.
